Measured values as given in US20060270727A1, “Small molecule therapeutics and uses therefor” (priority 2005, published 2006).

Columns and labels:
[1] = test system: GM15851 normal lymphoid cells; test: DNA microarray of global gene expression, normal cells; assay type: cell-based, human; settings: for number of genes with affected mRNA levels: P≦0.005
Protocol: (§1) Effects of Polyamides on Global Gene Expression. DNA microarray analyses (see Example 10) were performed with RNA isolated from GM15850 FRDA and GM15851 normal lymphoid cells that were either untreated or treated with polyamides FA1 (at 1 and 2 μM) or FA2 (at 2 μM) for 7 days on Affymetrix Human Genome U133 Plus 2.0 GeneChips®. These chips contain […] oligonucleotides representing all or nearly all of the genes in the human genome). Experiments were conducted according to manufacturer guidelines. […] Although more genes were judged affected by FA1 at 1 μM than at 2 μM, this difference is largely due to genes whose mRNA levels change by less than […] in either direction, and thus are not highly significant. At 2 μM FA1, 15 genes were increased in expression by greater than 50% and one gene was decreased by 45%. […] For GM15851 cells, two genes were up regulated by FA1, and no genes were down regulated. (Note that the probability that the genes affected in GM15851 cells would be judged significant by chance at P≦0.005 is 0.8-1.0, based on analysis with BRB ArrayTools). […] Strikingly, binding sites for FA1 (5′-AAGAAGAAG-3′, SEQ ID NO: ______) are present in 18/20 genes whose mRNA levels are increased by 1.2-fold or greater in GM15850 cells, although this sequence would be expected to appear at random only once per 262,000 bp in genomic DNA.
(§2) DNA Microarrays. FRDA and control lymphoid cells (i.e., lines GM15850 and GM15851, respectively) were incubated with polyamides FA1 (at 1 or 2 μM) or FA2 (at 2 μM), or in the absence of polyamide, in triplicate for seven days prior to RNA purification and microarray analysis. Affymetrix U133A Plus 2.0 GeneChips® were hybridized in groups of eight for each of the three replicates. Raw GeneChip® data were normalized with RMAExpress (Bolstad et al., 2003, Bioinformatics 19:185-193) and the normalized data was filtered to remove probesets called absent on 24 of 24 chips from class comparisons. The Affymetrix probeset-level data was imported to BRB Arraytools (v3.3.0 Beta 3a) selecting the U133 chips used in the experiment and leaving all filters off. For class comparisons between groups of arrays, unpaired samples were used and the random variance model was selected, with the univariate significance threshold set to 0.005. The restrictions for the univariate test were maintained as the default values of 10 for the maximum number of false discovered genes, 0.1 for the maximum proportion of false discoveries, and a 90% confidence level. Because of poor data correlation in one set of replicates, class comparisons were performed using all chips for the control group versus two of the three replicates for the treatment group (i.e., five groups are the minimum number required for class comparisons).

[2] = test system: GM15850 FRDA lymphoid cells; test: DNA microarray of global gene expression, FRDA cells; assay type: cell-based, human; settings: for number of genes with affected mRNA levels: P≦0.005; for gene expression profile approaching that of untreated GM15851 cells, in words: FA1 at 1 μM, FA2 at 2 μM
Protocol: as §1, §2

[3] = test system: sticky DNA in plasmid pRW4886, two tracts of (GAA)176; test: Sticky DNA disruption, EcoNI digestion and agarose gel; assay type: biochemical; settings: 37° C., 1 hr
Protocol: Influence of Polyamides on Sticky DNA Conformation. Plasmid pRW4886, which contains two tracts of (GAA)176 (SEQ ID NO: ______) in a direct repeat orientation (Vetcher et al., 2002b, Id)., and forms sticky DNA, was treated with polyamides at concentrations of 0-50 μM at 37° C. for 1 hr. Restriction digestion with EcoNI following the polyamide incubation enabled visualization of the presence or absence of an EcoNI cleaved sticky DNA band that runs with decreased mobility compared to the linearized plasmid on 1% agarose gels. Quantitation was by densitometric analysis using Fluor Chem version 3.04 (Alpha Innotech Corp).
The capacity of sequence-specific polyamides to disrupt the intramolecular sticky DNA structure formed by GAA repeat tracts was investigated. Plasmids harboring the sticky DNA structure are visualized by gel electrophoresis after restriction endonuclease cleavage, by methods well known in the art. […] Plasmid pRW4886, which contains two tracts of (GAA)176 (SEQ ID NO: ______) in a direct repeat orientation (Vetcher et al., 2002b, Id.), was incubated with each of polyamides FA1, FA2, FA3 and FA4 at concentrations ranging from 0-50 μM. The polyamide-bound DNA was then digested with EcoNI and subjected to electrophoresis on 1% agarose gels to determine the amount of EcoNI cleaved sticky DNA retarded band present. Incubation of pRW4886 DNA with FA3 shifted the equilibrium from a maximum amount of sticky DNA to a complete loss of the EcoNI cleaved sticky DNA retarded band at a concentration of 50 nM. […] For FA1, a 1 μM concentration was needed to dissociate the DNA-DNA structure-forming region. […] Since sticky DNA inhibits transcription (Ohshima et al., Id.; Sakamoto et al., 2001, J. Biol. Chem. 276:27171-27177), and since the polyamides destabilize this conformation by shifting the structural equilibrium to duplex B-type DNA, it is highly likely that the increases in frataxin mRNA observed with polyamide FA1 are due to this structural transition.

| SMILES | genes down regulated [1] | genes up regulated [1] | number of genes with affected mRNA levels ([1]; 7 days) | genes with comparable changes (>50% increase or 45% decrease) in mRNA levels ([2]; 1 μM) | number of genes with affected mRNA levels ([2]; 1 μM, 7 days) | frataxin mRNA level as % of that found in GM15851 cells (microarray) ([2]; 2 μM) | genes decreased in expression (by 45%) ([2]; 2 μM) | genes increased in expression by greater than 50% ([2]; 2 μM) | increase of frataxin mRNA (microarray) ([2]; 2 μM, 7 days) | number of genes with affected mRNA levels ([2]; 2 μM, 7 days) | slope of gene expression profile correlation vs untreated GM15851 cells ([2]; 2 μM, untreated FRDA cells 0.97) | gene expression profile approaching that of untreated GM15851 cells, in words [2] | concentration needed to affect or dissociate sticky DNA [3] | transcript levels for frataxin (microarray) ([1]; 2 μM, 7 days) | transcript levels for frataxin (microarray) ([2]; 2 μM, 7 days) |
| --- | --- | --- | --- | --- | --- | --- | --- | --- | --- | --- | --- | --- | --- | --- | --- |
| CN(C)CCCNC(=O)CCNC(=O)c1nc(NC(=O)CCNC(=O)c2cc(NC(=O)c3nc(NC(=O)CCNC(=O)c4cc(NC(=O)c5nccn5C)cn4C)cn3C)cn2C)cn1C [FA1, ImPyβImPyβImβDp] | no genes | two genes | two genes | three genes | 51 genes | 42% | one gene | 15 genes | 2.5 fold | 16 genes | 0.69 | seen to a lesser degree | 1 µM | – | – |
| CN(C)CCCNC(=O)CCNC(=O)c1cc(NC(=O)CCNC(=O)c2nc(NC(=O)c3nc(NC(=O)CCNC(=O)c4cc(NC(=O)c5nccn5C)cn4C)cn3C)cn2C)cn1C [FA2, ImPyβImImβPyβDp] | – | – | one gene | – | – | – | – | – | – | three genes | – | not seen | > 100 µM | not changed | not changed |
